# From paper doi:10.1101/2024.08.25.609621 (bioRxiv, 2024)
# Several values for one entry are separate records, joined by “and”; a condition that tells them apart may be missing. Identical values can stand only once. Like-named read-outs stand apart in the source and are kept apart here.
# Tests used:
# [1] = molecular target: SARS-CoV-2 NSP3 macrodomain (Mac1), P43 crystal form (Severe acute respiratory syndrome coronavirus 2, UniProt P0DTD1); format: binding; details: for Isomers modeled: stereoisomer(s) of ligand modeled in Mac1 crystal structure
# [2] = molecular target: SARS-CoV-2 NSP3 macrodomain (Mac1) (Severe acute respiratory syndrome coronavirus 2, UniProt P0DTD1); experiment: biochemical; format: binding
# [3] = ligand modeling in Mac1 crystal soak
# [4] = soak concentration 10 mM, TFA/DMSO background map
# [5] = preliminary screen, compound at 200 μM, mean of 3-4 technical replicates, read-out: % competition in HTRF assay
# [6] = dose-response, read-out: SARS CoV-2 macrodomain HTRF assay: Ki
# [7] = from SARS CoV-2 macrodomain HTRF assay
# [8] = SARS CoV-2 macrodomain HTRF assay
# [9] = SARS CoV-2 macrodomain HTRF assay, dose-response, read-out: IC50
# [10] = SARS CoV-2 macrodomain HTRF assay, dose-response, read-out: Ki
# [11] = crystal soak 10 mM, TFA/DMSO background map
# [12] = ligand modeling in Mac1 crystal structure
# [13] = soak concentration 10 mM, DMSO background map
smiles,measurement,setting,value
OCC(Cc1ccoc1)Nc1ncnc2[nH]ccc12 (stereo not drawn) [AVI-3705],Number of isomers bound,[1]; [3],1
same,"PanDDA run, TFA/DMSO background map: 1-BDC",[1]; [4],0.14
same,"PanDDA run, TFA/DMSO background map: Hit",[1]; [4],TRUE
same,inhibition at 200 µM,"[2]; Single dose, concentration 200 μM, read-out: Average % competition",64%
same,inhibition at 200 µM,[2]; [5],64%
O=C(O)C(F)(F)F.OC1([C@H]2CCCN2c2ncnc3[nH]ccc23)Cc2ccccc2C1 [AVI-3731],Number of isomers bound,[1]; [3],1
same,"PanDDA run, TFA/DMSO background map: 1-BDC",[1]; [4],0.14
same,"PanDDA run, TFA/DMSO background map: Hit",[1]; [4],TRUE
same,Ki,[2]; [6],3.4 µM
same,Ligand efficiency (binding enery per heavy atom),[2]; [7],0.31
same,fold more potent compared to open state binders reported previously,[2]; open state of Phe132 loop,10–50 fold
same,IC50,[2]; read-out: HTRF IC50,3.7 µM
CCC(CC)(CO)Nc1ncnc2[nH]ccc12 [AVI-3695],Number of isomers bound,[1]; [3],1
same,Isomers modeled,[1],"achiral,achiral"
same,Ligand efficiency (binding enery per heavy atom),[2]; [8],0.36
same,IC50,[2]; [9],40 µM
same,Ki,[2]; [10],37 µM
O=C(O)C(F)(F)F.OC[C@H](Cc1ccc(O)cc1)Nc1ncnc2[nH]ccc12 [AVI-4066],"Hit (PanDDA run, TFA/DMSO background map)",[1]; [11],TRUE
same,"1-BDC (PanDDA run, TFA/DMSO background map)","[1]; crystal soak 10 mM, TFA/DMSO background map, event 1",0.19 and 0.29 and 0.3
same,Number of isomers bound,[1]; [12],1
same,Ligand efficiency (binding enery per heavy atom),[2]; [8],0.21
same,IC50,[2]; [9],720 µM
same,Ki,[2]; [10],670 µM
"Cc1c[nH]c2ncnc(NCC3(O)CCC3)c12 [AVI-3571, 1-(((5-methyl-7H-pyrrolo[2,3-d]pyrimidin-4-yl)amino)methyl)cyclobutan-1-ol]",1-BDC,[1]; PanDDA background density correction,0.15
same,X-ray crystal structure,[1]; X-ray crystal structure determined (TRUE),TRUE
same,"Pandda run, overall: Modeled","[1]; crystal soak, soak concentration 10 mM",TRUE
same,"Pandda run, overall: Hit","[1]; crystal soak, soak concentration 10 mM, TRUE = ligand hit",TRUE
same,Total number of conformations,[1]; ligand conformations modeled in Mac1 crystal structure,2
same,Number of isomers bound,[1]; [3],1
same,2*(1-BDC) (%),[1]; occupancy estimate from PanDDA 1-BDC,30%
same,Binding site,[1]; site of ligand in X-ray crystal structure,Adenosine
same,"PanDDA run, DMSO background map: 1-BDC",[1]; [13],0.15 and 0.2
same,"PanDDA run, DMSO background map: Hit",[1]; [13],TRUE
same,Isomers modeled,[1],"achiral,achiral"
same,Hill slope,"[2]; HTRF dose-response fit, Mac1",1.0
same,Ligand efficiency (binding enery per heavy atom),[2]; [8],0.39
same,Hill slope,"[2]; SARS CoV-2 macrodomain HTRF assay, dose-response",1.0
same,IC50,[2]; [9],15 µM
same,Ki,[2]; [10],14 µM
Cc1nn(C)cc1C1CCC(CO)N1c1ncnc2[nH]ccc12 (stereo not drawn) [AVI-3733],Number of isomers bound,[1]; [3],1
same,inhibition at 200 µM,"[2]; Single dose, concentration 200 μM, read-out: SARS CoV-2 macrodomain HTRF assay: Average % competition",44%
same,inhibition at 200 µM,[2]; [5],44%
OC1(CNc2ncnc3[nH]ccc23)CCCSC1 (stereo not drawn) [AVI-4322],Number of isomers bound,[1]; [12],1
same,IC50,"[2]; dose-response, read-out: SARS CoV-2 macrodomain HTRF assay: IC50",53 µM
same,Ki,[2]; [6],49 µM
same,Ligand efficiency (binding enery per heavy atom),[2]; [7],0.33
CC(c1ccccc1)C(CO)Nc1ncnc2[nH]ccc12 (stereo not drawn) [AVI-3669],"PanDDA run, TFA/DMSO background map: 1-BDC",[1]; [11],0.09
same,"PanDDA run, TFA/DMSO background map: Hit",[1]; [11],TRUE
same,Number of isomers bound,[1]; [3],1
same,fold more potent / increased binding affinity than AVI-313 parent,[2]; HTRF IC50 compared with AVI-313,> 10 fold
same,Ligand efficiency (binding enery per heavy atom),[2]; [8],0.33
same,Ki,[2]; [10],8.1 µM
same,Ligand efficiency,[2]; binding energy per heavy atom,0.33
same,IC50,[2]; read-out: HTRF IC50,8.7 µM
